Results reported in patent publication US7829665B2 (priority 2005, dated 2010).
Read-outs that look alike come from different tables or passages of the source.

How the values were obtained:
[1] = tested on: HCV sub-genomic replicon in GS4.3 cells (HuH-7 hepatoma cells); assay: Quantitation by ELISA of Neomycin phosphotransferase II (NPTII) in the HCV sub-genomic replicon, GS4.3; assay type: cell-based, hepatitis C virus
Description: The HCV sub-genomic replicon (1377/NS3-3′, accession No. AJ242652), stably maintained in HuH-7 hepatoma cells, was created by Lohmann et al. Science 285: 110-113 (1999). The replicon-containing cell culture, designated GS4.3, was obtained from Dr. Christoph Seeger of the Institute for Cancer Research, Fox Chase Cancer Center, Philadelphia, Pa.
GS4.3 cells were maintained at 37° C., 5% CO2, in DMEM (Gibco 11965-092) supplemented with L-glutamine 200 mM (100×) (Gibco25030-081), non-essential amino acids (NEAA) (Biowhittaker 13-114E), heat-inactivated (HI) Fetal Bovine Serum (FBS) (Hyclone SH3007.03) and 750 μg/ml geneticin (G418) (Gibco 10131-035). Cells were sub-divided 1:3 or 4 every 2-3 days.
24 h prior to the assay, GS4.3 cells were collected, counted, and plated in 96-well plates (Costar 3585) at 7500 cells/well in 100 μl standard maintenance medium (above) and incubated in the conditions above. To initiate the assay, culture medium was removed, cells were washed once with PBS (Gibco 10010-023) and 90 μl Assay Medium (DMEM, L-glutamine, NEAA, 10% HI FBS, no G418) was added. Inhibitors were made as a 10× stock in Assay Medium, (3-fold dilutions from 10 μM to 56 pM final concentration, final DMSO concentration 1%), 10 μl were added to duplicate wells, plates were rocked to mix, and incubated as above for 72 h.
An NPTII Elisa kit was obtained from AGDIA, Inc. (Compound direct ELISA test system for Neomycin Phosphotransferase II, PSP 73000/4800). Manufacturer's instructions were followed, with some modifications. 10×PEB-1 lysis buffer was made up to include 500 μM PMSF (Sigma P7626, 50 mM stock in isopropanol). After 72 h incubation, cells were washed once with PBS and 150 μl PEB-1 with PMSF was added per well. Plates were agitated vigorously for 15 minutes, room temperature, then frozen at −70° C. Plates were thawed, lysates were mixed thoroughly, and 100 μl were applied to an NPTII Elisa plate. A standard curve was made. Lysate from DMSO-treated control cells was pooled, serially diluted with PEB-1 with PMSF, and applied to duplicate wells of the ELISA plate, in a range of initial lysate amount of 150 ul-2.5 ul. In addition, 100 μl buffer alone was applied in duplicate as a blank. Plates were sealed and gently agitated at room temperature for 2 h. Following capture incubation, the plates were washed 5×300 μl with PBS-T (0.5% Tween-20, PBS-T was supplied in the ELISA kit). For detection, a 1× dilution of enzyme conjugate diluent MRS-2 (5×) was made in PBS-T, into which 1:100 dilutions of enzyme conjugates A and B were added, as per instructions. Plates were resealed, and incubated with agitation, covered, room temperature, for 2 h. The washing was then repeated and 100 μl of room temperature TMB substrate was added. After approximately 30 minutes incubation (room temperature, agitation, covered), the reaction was stopped with 50 μl 3M sulfuric acid. Plates were read at 450 nm on a Molecular Devices Versamax plate reader.
Inhibitor effect was expressed as a percentage of DMSO-treated control signal, and inhibition curves were calculated using a 4-parameter equation: y=A+((B−A)/(1+((C/x)^D))), where C is half-maximal activity or EC50.

[2] = target: T1, full-length NS3/NS4A-2 (HCV NS3 protease) (Hepatitis C virus genotype 1a, UniProt P27958); assay: NS3-NS4 protease assay / NS3 inhibition assay (RETS1 substrate, fluorescence kinetic read); assay type: biochemical
T1 construct: Recombinant E. coli or Baculovirus full-length NS3 was diluted to 3.33 μM with assay buffer; made in house; host or cells: E. coli or baculovirus (BV) expression system
How it was run: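 Full-length NS3 from E. coli (2 nM in assay) or baculovirus (3 nM) was precomplexed with excess NS4A-2 peptide, then preincubated 10 min at room temperature with serially diluted compounds starting at 50 microM. Reaction was started with RETS1 substrate at 8 μM before addition and read kinetically for 30 min (ex 335/em 495 nm). Four-parameter IC50s were converted to Ki by Cheng-Prusoff using Km 2.03 μM (E. coli) or 1.74 μM (BV).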

[3] = Hepatitis C virus, Huh-7, GS4.3 cells, 72 h incubation, NPTII ELISA, read-out: Replicon EC50
[4] = recombinant E. coli or Baculovirus full-length NS3 with NS4A-2, read-out: NS3-NS4 IC50

T1 sequence (P27958 1027-1657): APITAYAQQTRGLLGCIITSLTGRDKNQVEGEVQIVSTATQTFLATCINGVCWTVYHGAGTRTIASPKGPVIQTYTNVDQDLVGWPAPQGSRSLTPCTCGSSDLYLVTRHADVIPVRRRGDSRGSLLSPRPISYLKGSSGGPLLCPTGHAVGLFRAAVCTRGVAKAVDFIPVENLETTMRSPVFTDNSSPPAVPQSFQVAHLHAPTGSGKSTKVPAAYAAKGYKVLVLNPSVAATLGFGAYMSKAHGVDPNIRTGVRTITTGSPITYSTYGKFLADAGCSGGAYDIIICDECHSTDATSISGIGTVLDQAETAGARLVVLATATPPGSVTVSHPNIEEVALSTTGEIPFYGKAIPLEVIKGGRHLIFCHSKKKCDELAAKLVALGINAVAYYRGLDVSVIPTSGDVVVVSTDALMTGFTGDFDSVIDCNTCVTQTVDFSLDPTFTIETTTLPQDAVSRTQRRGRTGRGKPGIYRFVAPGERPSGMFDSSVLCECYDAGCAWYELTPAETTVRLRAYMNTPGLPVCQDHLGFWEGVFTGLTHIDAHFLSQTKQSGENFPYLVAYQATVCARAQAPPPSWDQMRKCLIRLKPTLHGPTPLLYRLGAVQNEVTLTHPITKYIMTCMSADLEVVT

Row | Compound | EC50 [1, 3] | IC50 [2, 4] | IC50 [2] | EC50 ([1]; Table 26, read-out: EC50)
1 | O=C1N[C@]2(C(=O)NS(=O)(=O)C3CC3)C[C@H]2/C=C\CCCCC[C@H](Nc2c(N3CCC3)c(=O)c2=O)C(=O)N2C[C@H](OC(=O)N3CCc4ccccc4C3)C[C@@H]12 [Compound 242] | < 10000 nM | < 100 nM |  | 
2 | O=C(N[C@H]1CCCCC/C=C\[C@@H]2C[C@@]2(C(=O)NC(=O)C2CC2)NC(=O)[C@@H]2C[C@@H](OC(=O)N3CCc4ccccc4C3)CN2C1=O)OC1CCCC1 [Compound 706] | < 100 nM | < 100 nM |  | 
3 | O=C1N[C@]2(C(=O)NS(=O)(=O)C3CC3)C[C@H]2/C=C\CCCCC[C@H](NCC(F)(F)F)C(=O)N2C[C@H](OC(=O)N3Cc4cccc(F)c4C3)C[C@@H]12 [Compound 921] | < 1000 nM | < 100 nM |  | 
4 | CC(C)(C)OC(=O)N[C@H]1CCCCCC[C@@H]2C[C@@]2(C(=O)NS(=O)(=O)C2CC2)NC(=O)[C@@H]2C[C@@H](OC(=O)N3Cc4cccc(F)c4C3)CN2C1=O [Compound 269] | < 100 nM | < 100 nM |  | 
5 | CC(C)(C)OC(=O)N[C@H]1CCCCC/C=C\[C@@H]2C[C@@]2(C(=O)NS(=O)(=O)C2CC2)NC(=O)[C@@H]2C[C@@H](OC(=O)N3CCc4c(F)ccc(Cl)c4C3)CN2C1=O [Compound 259] | < 100 nM | < 100 nM |  | 
6 | CC(C)(C)OC(=O)N[C@H]1CCCCCCC[C@@H]2C[C@@]2(C(=O)NS(=O)(=O)C2CC2)NC(=O)[C@@H]2C[C@@H](OC(=O)N3Cc4cccc(F)c4C3)CN2C1=O [Compound 268] | < 100 nM | < 100 nM |  | 
7 | CC(C)(C)OC(=O)N[C@H]1CCNCC/C=C\[C@@H]2C[C@@]2(C(=O)NS(=O)(=O)C2CC2)NC(=O)[C@@H]2C[C@@H](OC(=O)N3Cc4cccc(F)c4C3)CN2C1=O [Compound 1031] | < 1000 nM | < 100 nM |  | 
8 | CC(C)(C)OC(=O)N[C@H]1CCCCC/C=C\[C@@H]2C[C@@]2(C(=O)NS(=O)(=O)C2CC2)NC(=O)[C@@H]2C[C@@H](OC(=O)N3CCc4c(Cl)ccc(Cl)c4C3)CN2C1=O [Compound 256] | < 100 nM | < 100 nM |  | 
9 | Cc1ccc(CN[C@H]2CCCCC/C=C\[C@@H]3C[C@@]3(C(=O)NC#N)NC(=O)C3C[C@@H](OC(=O)N4Cc5cccc(F)c5C4)CN3C2=O)o1 (some centres unmarked) [Compound 643] | > 10000 nM | < 1000 nM |  | 
10 | CN(C)S(=O)(=O)NC(=O)[C@@]12C[C@H]1/C=C\CCCCC[C@H](NC(=O)OC(C)(C)C)C(=O)N1C[C@H](OC(=O)N3Cc4c(Cl)ccc(Cl)c4C3)C[C@H]1C(=O)N2 [Compound 206] | < 100 nM | < 100 nM |  | 
11 | CC(C)(C)OC(=O)N[C@H]1CCCCC/C=C\[C@@H]2C[C@@]2(C(=O)N[C@@H]2CCS(=O)(=O)C2)NC(=O)[C@@H]2C[C@@H](OC(=O)N3Cc4cccc(F)c4C3)CN2C1=O [Compound 633] | < 1000 nM | < 1000 nM |  | 
12 | CC(C)(C)CNC(=O)[C@@]12C[C@H]1/C=C\CCCCC[C@H](NC(=O)OC(C)(C)C)C(=O)N1C[C@H](OC(=O)N3Cc4cccc(F)c4C3)C[C@H]1C(=O)N2 [Compound 616] | < 1000 nM | < 1000 nM |  | 
13 | N[C@H]1CCCCC/C=C\[C@@H]2C[C@@]2(C(=O)NS(=O)(=O)c2ccc(Cl)s2)NC(=O)[C@@H]2C[C@@H](OC(=O)N3Cc4cccc(Cl)c4C3)CN2C1=O [Compound 168] | < 10000 nM |  | < 100 nM | 
14 | O=C1N[C@]2(C(=O)NS(=O)(=O)C3CC3)C[C@H]2/C=C\CCCCC[C@H](NCCC(F)(F)F)C(=O)N2C[C@H](OC(=O)N3Cc4cccc(F)c4C3)C[C@@H]12 [Compound 900] | < 100 nM | < 100 nM |  | 
15 | O=C1N[C@]2(C(=O)NS(=O)(=O)C3CC3)C[C@H]2/C=C\CCCCC[C@H](NC(=S)NC2CCCC2)C(=O)N2C[C@H](OC(=O)N3Cc4cccc(F)c4C3)C[C@@H]12 [Compound 240] | < 1000 nM | < 100 nM |  | 
16 | O=C(N[C@H]1CCCCC/C=C\[C@@H]2C[C@@]2(C(=O)NS(=O)(=O)c2cc(Cl)sc2Cl)NC(=O)[C@@H]2C[C@@H](OC(=O)N3Cc4cccc(Cl)c4C3)CN2C1=O)OC1CCCC1 [Compound 174] | < 100 nM | < 100 nM |  | 
17 | (1S,4R,6S,14S) tert-butyl 4-Cyclopropanesulfonylaminocarbonyl-2,15-dioxo-3,16-diaza-tricyclo[14.3.0.0^4,6]nonadec-7-ene-14-yl carbamate [Compound 2137] |  | > 10000 nM |  | > 10000 nM
18 | Cc1ccc(CN[C@H]2CCCCC/C=C\[C@@H]3C[C@@]3(C(=O)NS(=O)(=O)C3CC3)NC(=O)[C@@H]3C[C@@H](OC(=O)N4Cc5cccc(F)c5C4)CN3C2=O)o1 [Compound 909] | < 100 nM | < 100 nM |  | 
19 | N[C@H]1CCCCC/C=C\[C@@H]2C[C@@]2(C(=O)NS(=O)(=O)c2cccs2)NC(=O)[C@@H]2C[C@@H](OC(=O)N3Cc4cccc(Cl)c4C3)CN2C1=O [Compound 169] | < 10000 nM |  | < 100 nM | 
20 | CCCNC(=O)[C@@]12C[C@H]1/C=C\CCCCC[C@H](N)C(=O)N1C[C@H](OC(=O)N3Cc4cccc(F)c4C3)C[C@H]1C(=O)N2 [Compound 621] | > 10000 nM | > 10000 nM |  | 
21 | O=C(N[C@H]1CCCCC/C=C\[C@@H]2C[C@@]2(C(=O)NS(=O)(=O)N2CCC(F)(F)C2)NC(=O)[C@@H]2C[C@@H](OC(=O)N3Cc4cccc(F)c4C3)CN2C1=O)OC1CCCC1 [Compound 225] | < 100 nM | < 100 nM |  | 
22 | CCOC(=O)[C@@]12C[C@H]1/C=C\CCCCC[C@H](N)C(=O)N1C[C@H](OC(=O)N3Cc4ccccc4C3)C[C@H]1C(=O)N2 [Compound 121] | < 1000 nM | < 1000 nM |  | 
23 | CC(NC(=O)[C@@]12C[C@H]1/C=C\CCCCC[C@H](NC(=O)OC(C)(C)C)C(=O)N1C[C@H](OC(=O)N3Cc4cccc(F)c4C3)C[C@H]1C(=O)N2)c1ccncc1 (some centres unmarked) [Compound 618] | < 10000 nM | < 100 nM |  | 
24 | CC(C)(C)OC(=O)N[C@H]1CCCCC/C=C\[C@@H]2C[C@@]2(C(=O)NCc2ccc(C(O)C(F)(F)F)cc2)NC(=O)[C@@H]2C[C@@H](OC(=O)N3Cc4cccc(F)c4C3)CN2C1=O (some centres unmarked) [Compound 606] | < 1000 nM | < 1000 nM |  | 
25 | CC(C)(C)CCN[C@H]1CCCCC/C=C\[C@@H]2C[C@@]2(C(=O)NS(=O)(=O)C2CC2)NC(=O)[C@@H]2C[C@@H](OC(=O)N3Cc4cccc(F)c4C3)CN2C1=O [Compound 912] | < 100 nM | < 100 nM |  | 
26 | COCC1c2cccc(F)c2CCN1C(=O)O[C@@H]1CC2C(=O)N[C@]3(C(=O)NS(=O)(=O)C4CC4)C[C@H]3/C=C\CCCCC[C@H](N)C(=O)N2C1 (some centres unmarked) [Compound 106] | > 10000 nM | < 1000 nM |  | 
27 | O=C(N[C@H]1CCCCC/C=C\[C@@H]2C[C@@]2(C(=O)NS(=O)(=O)C2CC2)NC(=O)[C@@H]2CCCN2C1=O)C1CC1 [Compound 317] | > 10000 nM | < 1000 nM |  | 
28 | CC(C)(C)OC(=O)N[C@H]1CCOCCCC[C@@H]2C[C@@]2(C(=O)NS(=O)(=O)C2CC2)NC(=O)[C@@H]2C[C@@H](OC(=O)N3Cc4cccc(F)c4C3)CN2C1=O [Compound 1028, (2R,6S,13aR,14aR,16aS)-6-(tert-butoxycarbonylamino)-14a-(cyclopropylsulfonylcarbamoyl)-5,16-dioxohexadecahydro-1H-cyclopropa(j)pyrrolo[1,2-f][1,6,9]oxadiazacyclopentadecin-2-yl 4-fluoroisoindoline-2-carboxylate] | < 100 nM | < 100 nM |  | 
